Assay results taken from US7414036B2, “Compounds useful as A3 adenosine receptor agonists” (Muscagen Limited, priority 2002, dated 2008).
Where “and” joins values, the source holds several entries; their conditions need not be identical. Equal entries are not always repeated. Blank lines part the entries; values can stand above or below the compound they belong to.

Key:
[1] = molecular target: T1, human A3 receptors (Homo sapiens, UniProt P0DMS8); assay: A3 receptor radioligand binding, displacement of [125I]-AB-MECA; details: for IC50: displacement of [125I]-AB-MECA (0.3 nM), human A3 receptors expressed in CHO cells, membranes, 60 min room temperature; for % Displacement of [125I]-AB-MECA: human A3 receptors in CHO cells
T1 construct: expressed in transfected cells; host or cells: CHO cells (membrane preparations)
T1 sequence (P0DMS8 1-318): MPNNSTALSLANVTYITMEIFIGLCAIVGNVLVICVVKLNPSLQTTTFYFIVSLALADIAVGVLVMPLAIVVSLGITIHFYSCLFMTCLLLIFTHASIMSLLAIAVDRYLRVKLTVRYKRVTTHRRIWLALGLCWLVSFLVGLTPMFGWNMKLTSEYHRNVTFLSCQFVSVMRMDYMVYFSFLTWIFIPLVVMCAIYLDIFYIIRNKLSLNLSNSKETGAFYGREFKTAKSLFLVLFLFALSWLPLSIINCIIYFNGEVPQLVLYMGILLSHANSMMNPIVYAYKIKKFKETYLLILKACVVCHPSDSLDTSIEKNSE

[2] = Partition coefficient, propylene glycol dipelargonate (PGDP)/water model; type: physicochemical; details: 21.2 °C; for Log P(s): partition solvent propylene glycol dipelargonate (PGDP)/water, neutral species
Description: The partition measurements were based on a long chain ester (propylene glycol dipelargonate-PGDP)/water model.

[3] = test system: A2 receptor; assay: A2 receptor functional activity, relaxation of isolated trachea pre-contracted with carbachol; set-up: species or system guinea-pig; details: for IC25, relaxation at A2 receptors of guinea-pig trachea: concentration for 25% of the maximum response to NECA, trachea precontracted with carbachol (100 nM)
[4] = pKa determination with co-solvent titrations; type: physicochemical; details: read-out: pKa (s)
[5] = test system: guinea-pig isolated left atria; assay: Myocardial contractile dysfunction (stunning) after simulated ischaemia of isolated atria
Procedure: The following experiment was carried out to evaluate the efficacy of compound 6 in protecting against myocardial contractile dysfunction (stunning) after simulated ischaemia of isolated atria.
Guinea-pig isolated left atria were set up in tissue baths containing Krebs-bicarbonate solution gassed with 5% CO2 in oxygen at 37° C. and electrically paced at 2 Hz with pulses of threshold voltage +50% and 5 ms pulse width. Developed tension was recorded. After equilibrium, they were exposed to 30 min of simulated ischaemia by gassing with 5% CO2 in nitrogen and removing the glucose substrate which was replaced with choline chloride (7 mM) to maintain isotonicity. Pacing was continued throughout. After 30 min, the tissues were reoxygenated and glucose was returned. […] This partial recovery was the index of myocardial stunning. […] This timing was to simulate administration at the time of reperfusion induced by thrombolyic therapy following myocardial infarction.

[6] = molecular target: T2, A1 receptor (Cavia porcellus, UniProt P47745); assay: A1 receptor functional activity, negative inotropic response of isolated paced left atria; set-up: species or system guinea-pig; details: for IC25, negative inotropic action at A1 receptors of guinea-pig atria: concentration for 25% of the maximum response to NECA, cumulative concentration-response curves
T2 construct: from tissue; host or cells: guinea-pig isolated paced left atria
T2 sequence (P47745 1-326): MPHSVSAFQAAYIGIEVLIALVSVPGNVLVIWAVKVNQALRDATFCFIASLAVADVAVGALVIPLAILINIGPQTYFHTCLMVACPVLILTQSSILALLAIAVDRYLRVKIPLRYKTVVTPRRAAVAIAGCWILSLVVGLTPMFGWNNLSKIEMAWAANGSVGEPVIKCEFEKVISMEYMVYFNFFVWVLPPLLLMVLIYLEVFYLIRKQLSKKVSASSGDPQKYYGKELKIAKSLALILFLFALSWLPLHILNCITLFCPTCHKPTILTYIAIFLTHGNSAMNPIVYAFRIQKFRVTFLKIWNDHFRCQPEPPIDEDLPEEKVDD

[7] = e.g. from about 70 mm Hg to about 90 mm Hg; cited from earlier work
[8] = empiric evidence; cited from earlier work

- IC50 [1]: 6 nM
- melting point: 84 to 86 °C
Compound: CNC(=O)[C@H]1O[C@@H](n2cnc3c(NCc4ccccn4)ncnc32)C(O)C1O (stereo partly shown) [Compound 3, N^6-(2-picolyl)adenosine-5′-N-methyluronamide]

- IC50 [1]: 0.4 nM
- melting point: 226 to 228 °C
Compound: CNC(=O)[C@H]1O[C@@H](n2cnc3c(NCc4cccc(C(C)=O)n4)ncnc32)C(O)C1O (stereo partly shown) [Compound 4, N^6-(6-acetyl-2-picolyl)adenosine-5′-N-methyluronamide]

- IC50 [1]: 31 to 45 nM
Compound: CNC(=O)[C@H]1O[C@@H](n2cnc3c(NCc4cc(I)ccn4)nc(C#Cc4ccccc4)nc32)[C@H](O)[C@@H]1O [Compound 5, N^6-(4-iodo-2-picolyl)-2-(2-phenyl-1-ethynyl)-adenosine-5′-N-methyluronamide]

- IC50 [1]: 450 nM
- pKa [4]: 3.61
- melting point: 239 to 241 °C
Compound: CNC(=O)[C@H]1O[C@@H](n2cnc3c(NCc4ccc5oc(N(C)C)nc5c4)ncnc32)C(O)C1O (stereo partly shown) [Compound 7, N^6-[(2-Dimethylamino-1,3-benzoxazol-5-yl)-methyl]-adenosine-5′-N-methyluronamide]

- IC50 [1]: 21 to 80 nM
Compound: CNC(=O)[C@H]1O[C@@H](n2cnc3c(NCc4cc(I)c5oc(N(C)C)nc5c4)nc(C#Cc4ccccc4)nc32)[C@H](O)[C@@H]1O [Compound 8, N^6-[(2-dimethylamino-7-iodo-1,3-benzoxazol-5-yl)-methyl]-2-(2-phenyl-1-ethynyl)-adenosine-5′-N-methyluronamide]

More lines, now with the values behind:

Compound: CNC(=O)[C@H]1O[C@@H](n2cnc3c(NCc4cc(C)ccn4)ncnc32)C(O)C1O (stereo partly shown) [Compound 1, N^6-(4-methyl-2-picolyl)-adenosine-5′-N-methyluronamide]
- IC50 [1]: 2.2 nM

Compound: CNC(=O)[C@H]1O[C@@H](n2cnc3c(NCc4cc(I)c5oc(N(C)C)nc5c4)ncnc32)C(O)C1O (stereo partly shown) [Compound 6, N^6-[(2-dimethylamino-7-iodo-1,3-benzoxazol-5-yl)-methyl]-adenosine-5′-N-methyluronamide]
- Log D ([2]; partition solvent PGDP/water): 1.483
- Log P(s) [2]: 1.484
- Log P(s) ([2]; listed as compound 10): 1.48±0.03
- Potency for binding to the human A3 receptor (in words) [1]: picomolar potency
- % Displacement of [125I]-AB-MECA ([1]; Concentration (Log M) −7): 94%
- % Displacement of [125I]-AB-MECA ([1]; Concentration (Log M) −9): 79%
- % Displacement of [125I]-AB-MECA ([1]; Concentration (Log M) −10): 73%
- % Displacement of [125I]-AB-MECA ([1]; Concentration (Log M) −11): 68%
- % Displacement of [125I]-AB-MECA ([1]; Concentration (Log M) −12): 47%
- A3 binding potency compared with IB-MECA ([1]; comparison of IC50 values of Table 1): approximately two orders of magnitude more potent
- IC50 [1]: 0.0016 nM
- IC25, relaxation at A2 receptors of guinea-pig trachea [3]: 9070 nM
- Selectivity for A3 receptors (radioligand binding) against A2 receptors (tracheal relaxation) ([3]; ratio of tracheal functional value to A3 binding IC50): 5.6×10^6
- pKa [4]: 3.66 ± 0.03
- Maximum developed contractile tension (%), Post-ischaemic, Mean ([5]; Compound 6 5 × 10^−9 M at reoxygenation, % of pre-ischaemic value, n=3): 84.0%
- Maximum developed contractile tension (%), Post-ischaemic, Mean ([5]; Compound 6 5 × 10^−9 M at reoxygenation, % of pre-ischaemic value, n=3, listed as compound 6): 84.0±18.0%
- Maximum developed contractile tension, Post-ischaemic ([5]; Compound 6 5 × 10^−9 M introduced at reoxygenation after 30 min simulated ischaemia, single experiments): 0.72 g and 0.42 g and 0.40 g
- IC25, negative inotropic action at A1 receptors of guinea-pig atria [6]: 1000 nM
- Selectivity for A3 receptors (radioligand binding) against A1 receptors (negative inotropy) ([6]; ratio of atrial functional value to A3 binding IC50): 6.25×10^6
- IC50 ([6]; read-out: IC50, negative inotropic action at A1 receptors of guinea-pig atria): 10000 nM

Compound: CNC(=O)[C@H]1O[C@@H](n2cnc3c(NCc4cccc(I)c4)ncnc32)[C@H](O)[C@@H]1O [IB-MECA]
- Increase in basal or systemic blood pressure [7]: 10-30%
- Maximum developed contractile tension (%), Post-ischaemic, Mean ([5]; IB-MECA 3 × 10^−7 M at reoxygenation, % of pre-ischaemic value, 6 experiments): 66.5±6.5% and 66.5%
- Maximum developed contractile tension (%), Post-ischaemic ([5]; IB-MECA 3 × 10^−7 M at reoxygenation, % of pre-ischaemic value, single experiments): 83.3% and 45.5% and 60% and 63% and 87.5%

Compound: CCNC(=O)[C@H]1O[C@@H](n2cnc3c(N)ncnc32)[C@H](O)[C@@H]1O [NECA, N-ethylcarboxamidoadenosine, reference compound]
- IC25, relaxation at A2 receptors of guinea-pig trachea [3]: 940 nM
- IC25, negative inotropic action at A1 receptors of guinea-pig atria [6]: 52 nM

Compound: CC(C)NCC(O)COc1cccc2ccccc12 (stereo not shown) [propranolol]
- Effective partition after allowing for protonation, log10 PGDP/H2O scale [8]: ~0.8

Compound: N^6-(4-iodo-2-picolyl)-adenosine-5′-N-methyluronamide [Compound 2]
- IC50 [1]: 0.45 nM
